Converted amounts (≈) assume the structure as drawn. Like-named read-outs stand apart in the source and are kept apart here.
What was measured:
[1] = Human Liver Microsomal Stability; type: in vitro ADME; conditions: both sexes, pooled liver microsomes, 1 μM compound
Description: Metabolic stability was measured by determining the rate of disappearance of compound in the presence of human liver microsomal preparations, as quantified by liquid chromatography mass-spectrometry and […] mass-spectrometry (LC-MS/MS).
Metabolic stability of test compounds was measured by determination of the rate of disappearance of the compound when incubated in the presence of human liver microsomes. Liver microsomes are prepared from the endoplasmic reticulum of hepatocytes and are the primary source of the most important enzymes (cytochrome P450s) involved in drug metabolism. Study of drug stability in the presence of liver microsomes is accepted as a valuable model permitting rapid prediction of in vivo drug stability.
Human liver microsomes were obtained from a commercial source. Test compounds (1 μM) were incubated with pooled liver microsomes (male and female). Samples were incubated for a 60 minute period and removed at up to 6 time points and analysed by LC-MS/MS for the presence/amount of test compounds.
Microsomes (final protein concentration 0.25 or 0.5 mg/mL), 0.1 M phosphate buffer pH 7.4, and test compound (final concentration 1 μM; diluted from 10 mM stock solution to give a final DMSO concentration of 0.1%) were incubated at 37° C. prior to the addition of Nicotinamide adenine dinucleotide phosphate (NADPH, final concentration 1 mM) to initiate the reaction. The final incubation volume was 100 μL. A control incubation was included for each compound tested, where 0.1 M phosphate buffer pH 7.4 was added instead of NADPH. […]
Each compound was incubated for 0, 5, 15, 30, 45 or 60 minutes. The reactions were stopped by the addition of 100 μL ice-cold acetonitrile containing internal standard (0.001 mM glipizide) at the appropriate time points. The incubation plates were centrifuged at 4000 rpm for 15 minutes at 4° C. to precipitate the protein and 0.1 mL aliquots were analysed using LC-MS/MS, with the conditions shown in the following table.
From a plot of the natural logarithm of the peak area ratio (i.e., the ratio of compound peak area:internal standard peak area) against time, the gradient of the line was determined.

[2] = Aqueous (FaSSIF) solubility; type: physicochemical; conditions: fasted state simulated intestinal fluid (FaSSIF); for solubility at 16 h: kinetic from dmso stock, pH 6.5, three replicates, read-out: Solubility (1); for solubility: pH 6.8, two replicates, read-out: Solubility (2)
Description: Solubility was measured by equilibration of the compound in fasted state simulated intestinal fluid (FaSSIF) and quantified by high-performance liquid chromatography (HPLC).
Aqueous solubility was measured by equilibration of compounds with fasted state simulated intestinal fluid (FaSSIF) and quantified spectrophotometrically.
FaSSIF was prepared as described below:
Preparation of blank FaSSIF: 0.21 g of sodium hydroxide (NaOH) pellets, 1.97 g of dihydrogen sodium phosphate (NaH2PO4.2H2O) and 3.09 g of sodium chloride (NaCl) were dissolved in 400 mL of deionised water. […]
Preparation of FaSSIF: 0.056 g of SIF Powder (containing sodium taurocholate and lecithin) (Phares AG) was dissolved in 25 mL of blank FaSSIF and stirred until the powder was completely dissolved. The solution was allowed to stand for 2 hours during which it became opalescent; it was used within 24 hours. The final solution composition was characterised as follows: • Sodium taurocholate: 3 mM • Lecithin: 0.75 mM • Osmolarity: 270±10 mOsmol • pH: 6.5
The optical density was measured at the end of the incubation period for test compounds and a reference used to determine solubility. In brief, two samples were prepared for each determination: a reference sample consisting of a stock solution of test compound in DMSO diluted in system solution (a phosphate free, low absorption buffer) and propanol; and a test sample (prepared in triplicate) consisting of 0.5 mL FaSSIF spiked with test compound at 0.2 mM. Each sample was incubated at room temperature for 16 hours with constant shaking at 250 rpm. At the end of the incubation period, 0.3 mL of each sample was filtered through a pION filter plate (PION, Woburn Mass.), diluted 1:1 with propanol and scanned using UV spectrophotometry at λmax ([…]) using a Spectra Max Plus—Version 2.1000 (Molecular Devices, Sunnyvale, Calif.), with μSOL Explorer solubility determination software (pION, Woburn, Mass.).
FaSSIF solubility was calculated using the following formula:
[formula] wherein: • “OD” is the optical density; • “Cr” is the concentration of the reference (33.4 μM); and • “molecular weight” is for the test compound (e.g., 381.44 for ABD735).

[3] = pH 7.4, human liver microsomes 0.25 mg/mL protein, 5 time points 0-60 min, one replicate, read-out: T1/2 (1)
[4] = pH 7.4, human liver microsomes 0.5 mg/mL protein, 6 time points 0-60 min, two replicates, read-out: T1/2 (2)

Compound | half-life at 1 μM [1, 3] [h] | solubility at 16 h [2] [µg/mL] | half-life at 1 μM [1, 4] [h] | solubility [2] [µg/mL]
C[C@]1(O)CC[C@H](NS(=O)(=O)c2ccc(-c3ncc(F)cc3F)c(F)c2)CC1 [HMC-N-01-A, 4-(3,5-Difluoropyridin-2-yl)-3-fluoro-N-((1r,4r)-4-hydroxy-4-methylcyclohexyl)benzenesulfonamide] | 2.92 | 30 (≈ 74.9 µM) | – | –
C[C@]1(O)CC[C@@H](NS(=O)(=O)c2ccc(-c3ccc(F)cc3F)c(F)c2)CC1 [HMC-C-04-B, 2,2′,4′-Trifluoro-N-((1s,4s)-4-hydroxy-4-methylcyclohexyl)-[1,1′-biphenyl]-4-sulfonamide] | – | – | 1.78 | 130 (≈ 325 µM)
C[C@]1(O)CC[C@H](NS(=O)(=O)c2ccc(-c3c(F)cc(F)cc3F)cc2)CC1 [HMC-C-03-A, 2′,4′,6′-Trifluoro-N-((1r,4r)-4-hydroxy-4-methylcyclohexyl)biphenyl-4-sulfonamide] | 1.4 | 30 (≈ 75.1 µM) | – | –
C[C@]1(O)CC[C@@H](NS(=O)(=O)c2ccc(-c3ncc(F)cc3F)c(F)c2)CC1 [HMC-N-01-B, 4-(3,5-Difluoropyridin-2-yl)-3-fluoro-N-((1s,4s)-4-hydroxy-4-methylcyclohexyl)benzenesulfonamide] | – | – | 2.12 | 120 (≈ 300 µM)
C[C@]1(O)CC[C@H](NS(=O)(=O)c2ccc(-c3ncc(Cl)cc3Cl)c(F)c2)CC1 [HMC-N-04-A, 4-(3,5-Dichloropyridin-2-yl)-3-fluoro-N-((1r,4r)-4-hydroxy-4-methylcyclohexyl)benzenesulfonamide] | 2.6 | 60 (≈ 138 µM) | – | –
C[C@]1(O)CC[C@H](NS(=O)(=O)c2ccc(-c3ccc(F)cc3F)cc2)CC1 [ABD900, reference compound] | – | – | 1.45 | 120 (≈ 315 µM)
Cc1cc(S(=O)(=O)NC2CCC(C)(O)CC2)ccc1-c1ccc(F)cc1F (single isomer, unassigned) [REF001, reference compound] | 0.717 | 50 (≈ 126 µM) | – | –
C[C@]1(O)CC[C@H](NS(=O)(=O)c2ccc(-c3ncc(F)cc3F)cc2)CC1 [HMC-N-02-A, 4-(3,5-Difluoropyridin-2-yl)-N-((1r,4r)-4-hydroxy-4-methylcyclohexyl)benzenesulfonamide] | 6.12 | 20 (≈ 52.3 µM) | – | –
C[C@]1(O)CC[C@@H](NS(=O)(=O)c2ccc(-c3ccc(F)cc3F)cc2)CC1 [ABD899, reference compound] | 1.2 | 60 (≈ 157 µM) | 1.75 | 130 (≈ 341 µM)
C[C@]1(O)CC[C@@H](NS(=O)(=O)c2ccc(-c3ncc(F)cc3F)cc2)CC1 [HMC-N-02-B, 4-(3,5-Difluoropyridin-2-yl)-N-((1s,4s)-4-hydroxy-4-methylcyclohexyl)benzenesulfonamide] | – | – | 2.8 | 120 (≈ 314 µM)
C[C@]1(O)CC[C@H](NS(=O)(=O)c2ccc(-c3ccc(F)cc3C(F)(F)F)cc2)CC1 [HMC-C-02-A, 4′-Fluoro-N-((1r,4r)-4-hydroxy-4-methylcyclohexyl)-2′-(trifluoromethyl)biphenyl-4-sulfonamide] | 0.917 | 40 (≈ 92.7 µM) | – | –
C[C@]1(O)CC[C@@H](NS(=O)(=O)c2ccc(-c3ccc(F)cc3C(F)(F)F)cc2)CC1 [HMC-C-02-B, 4′-Fluoro-N-((1s,4s)-4-hydroxy-4-methylcyclohexyl)-2′-(trifluoromethyl)-[1,1′-biphenyl]-4-sulfonamide] | – | – | 0.3 | 70 (≈ 162 µM)
C[C@]1(O)CC[C@H](NS(=O)(=O)c2ccc(-c3ccc(Cl)cc3C#N)cc2)CC1 [HMC-C-01-A, 4′-Chloro-2′-cyano-N-((1r,4r)-4-hydroxy-4-methylcyclohexyl)biphenyl-4-sulfonamide] | 1.37 | 60 (≈ 148 µM) | – | –
C[C@]1(O)CC[C@@H](NS(=O)(=O)c2ccc(-c3ccc(Cl)cc3C#N)cc2)CC1 [HMC-C-01-B, 4′-Chloro-2′-cyano-N-((1s,4s)-4-hydroxy-4-methylcyclohexyl)-[1,1′-biphenyl]-4-sulfonamide] | – | – | 1.17 | 80 (≈ 198 µM)
C[C@]1(O)CC[C@@H](NS(=O)(=O)c2ccc(-c3ncc(Cl)cc3Cl)cc2)CC1 [HMC-N-03-B, 4-(3,5-Dichloropyridin-2-yl)-N-((1s,4s)-4-hydroxy-4-methylcyclohexyl)benzenesulfonamide] | – | – | 1.17 | 100 (≈ 241 µM)
C[C@]1(O)CC[C@H](NS(=O)(=O)c2ccc(-c3ccc(F)cc3F)c(F)c2)CC1 [HMC-C-04-A, 2,2′,4′-Trifluoro-N-((1r,4r)-4-hydroxy-4-methylcyclohexyl)-[1,1′-biphenyl]-4-sulfonamide] | – | – | 1.67 | 80 (≈ 200 µM)
O=S(=O)(N[C@H]1CC[C@H](O)CC1)c1ccc(-c2ncc(Cl)cc2Cl)cc1 [ABD836, reference compound] | > 15 | 30 (≈ 74.8 µM) | – | –
C[C@]1(O)CC[C@@H](NS(=O)(=O)c2ccc(-c3c(F)cc(F)cc3F)cc2)CC1 [HMC-C-03-B, 2′,4′,6′-Trifluoro-N-((1s,4s)-4-hydroxy-4-methylcyclohexyl)-[1,1′-biphenyl]-4-sulfonamide] | – | – | 0.8 | 150 (≈ 376 µM)
C[C@]1(O)CC[C@H](NS(=O)(=O)c2ccc(-c3ncc(Cl)cc3Cl)cc2)CC1 [HMC-N-03-A, 4-(3,5-Dichloropyridin-2-yl)-N-((1r,4r)-4-hydroxy-4-methylcyclohexyl)benzenesulfonamide] | 4.3 | > 80 | – | –
Cc1cc(S(=O)(=O)N[C@H]2CC[C@H](O)CC2)ccc1-c1ccc(F)cc1F [ABD735] | 8.73 | 20 (≈ 52.4 µM) | – | –

Reference: patent publication US9624167B2, “N-(4-hydroxy-4-methyl-cyclohexyl)-4-phenyl-benzenesulfonamides and N-(4-hydroxy-4-methyl-cyclohexyl)-4-(2-pyridyl)benzenesulfonamides and their therapeutic use” (PIMCO 2664 LIMITED, priority 2013, dated 2017)
